Test results as given in patent US11944623B2, “Modulators of Kv3 channels to treat pain” (Autifony Therapeutics Limited, priority 2015, dated 2024).

Biological target: T1, human Kv3.1 channels (Homo sapiens, UniProt P48547)
T1 construct: expressed in transfected cells; host or cells: CHO/Gam/E1A-clone22 (CGE22) cells, transient BacMam transduction
T1 sequence (P48547 1-511): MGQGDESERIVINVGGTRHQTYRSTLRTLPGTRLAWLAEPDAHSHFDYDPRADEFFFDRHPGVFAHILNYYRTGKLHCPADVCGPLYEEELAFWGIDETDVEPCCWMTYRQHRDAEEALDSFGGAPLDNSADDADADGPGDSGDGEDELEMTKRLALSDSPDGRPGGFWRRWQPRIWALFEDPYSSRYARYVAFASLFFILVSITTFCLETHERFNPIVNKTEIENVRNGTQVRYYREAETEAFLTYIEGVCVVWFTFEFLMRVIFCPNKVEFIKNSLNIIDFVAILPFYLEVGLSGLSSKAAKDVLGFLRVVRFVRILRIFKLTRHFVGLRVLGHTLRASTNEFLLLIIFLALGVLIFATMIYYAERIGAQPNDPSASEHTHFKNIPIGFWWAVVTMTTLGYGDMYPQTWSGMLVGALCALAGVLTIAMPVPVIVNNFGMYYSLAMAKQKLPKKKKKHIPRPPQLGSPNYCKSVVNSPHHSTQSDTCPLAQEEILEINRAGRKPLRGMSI
Test: hKv3.1 IonWorks Quattro whole-cell current potentiation assay
Type: cell-based
Settings: potency as indicated by an EC50 value
Text: The ability of the compounds of the invention to modulate the voltage-gated potassium channel subtypes Kv3.3/Kv3.2/Kv3.1 may be determined using the following assay. Analogous methods may be used to investigate the ability of the compounds of the invention to modulate other channel subtypes.
To assess compound effects on human Kv3.1 channels (hKv3.1), CHO/Gam/E1A-clone22 alias CGE22 cells were transduced using a hKv3.1 BacMam reagent. This cell line was designed to be an improved CHO-K1-based host for enhanced recombinant protein expression as compared to wild type CHO-K1. The cell line was generated following the transduction of CHO-K1 cells with a BacMam virus expressing the Adenovirus-Gam1 protein and selection with Geneticin-G418, to generate a stable cell line, CHO/Gam-A3. CHO/Gam-A3 cells were transfected with pCDNA3-E1A-Hygro, followed by hygromycin-B selection and FACS sorting to obtain single-cell clones. […]
Experiments were conducted at room temperature using IonWorks Quattro™ planar array electrophysiology technology (Molecular Devices Corp.) with PatchPlate™ PPC. […] Planar electrode hole resistances (Rp) were determined by applying a 10 mV voltage step across each well. […]
Test pulses protocol may be performed in the absence (pre-read) and presence (post-read) of the test compound. […]

For `Cc1ccc(Oc2ccc(-n3c(C)n[nH]c3=O)cn2)c2c1OCC21CC1` [Compound 3, 5-methyl-4-{6-[(7-methylspiro[1-benzofuran-3,1′-cyclopropan]-4-yl)oxy]pyridin-3-yl}-2,4-dihydro-3H-1,2,4-triazol-3-one], the “activity between modulation of Kv3.1 and Kv3.2 channels” value was “comparable activity”.
